Source: ChEMBL document CHEMBL1268953, “Discovery of novel 2-aryl-4-benzoyl-imidazoles targeting the colchicines binding site in tubulin as potential anticancer agents” (J Med Chem, 2010)
In brackets after ≈: the same amount, converted by molar mass.

Tests used:
[1] = tested on: A-375; experiment: Cytotoxicity against human A375 cells after 48 hrs by sulforhodamine B assay; type: functional, cell-based; conditions: Homo sapiens, A-375, 48 h
[2] = Cytotoxicity against mouse B16-F1 cells after 48 hrs by sulforhodamine B assay; type: functional, cell-based; conditions: Mus musculus, B16-F1, 48 h
[3] = Cytotoxicity against human WM164 cells after 48 hrs by sulforhodamine B assay; type: functional, cell-based; conditions: Homo sapiens, WM164, 48 h
[4] = tested on: LNCaP; experiment: Cytotoxicity against human LNCAP cells after 48 hrs by sulforhodamine B assay; type: functional, cell-based
[5] = tested on: PPC-1; experiment: Cytotoxicity against human PPC1 cells after 48 hrs by sulforhodamine B assay; type: functional, cell-based; conditions: Homo sapiens, PPC-1, 48 h
[6] = tested on: PC-3; experiment: cells; conditions: Homo sapiens, PC-3, 48 h
Description: Cytotoxicity against human PC3 cells after 48 hrs by sulforhodamine B assay

[7] = tested on: DU-145; experiment: cells; conditions: Homo sapiens, DU-145, 48 h
Description: Cytotoxicity against human DU145 cells after 48 hrs by sulforhodamine B assay

[8] = Aqueous solubility of the compound in buffer at pH 7 after 24 hrs by shake-flask method; type: physicochemical
[9] = Aqueous solubility of the compound in water after 24 hrs by shake-flask method; type: physicochemical
[10] = Antitumor activity against mouse B16-F1 cells xenografted in C57/BL mouse assessed as reduction of tumor growth at 60 mg/kg, ip administered 7 days after tumor inoculation qd for 14 days; type: functional; parameters: scale not given: the % may be the effect or the level left; conditions: route intraperitoneal
[11] = tested on: Mus musculus; experiment: Toxicity in mouse B16-F1 cells xenografted C57/BL mouse assessed as reduction of body weight at 60 mg/kg, ip administered 7 days after tumor inoculation qd for 14 days; type: organism-based; parameters: dose 60 mg/kg, route intraperitoneal; conditions: in vivo
[12] = tested on: Mus musculus; experiment: Toxicity in mouse B16-F1 cells xenografted C57/BL mouse assessed as reduction of body weight at 10 mg/kg, ip administered 7 days after tumor inoculation qd for 14 days; type: organism-based; parameters: dose 10 mg/kg, route intraperitoneal; conditions: in vivo
[13] = tested on: Mus musculus; experiment: Toxicity in mouse B16-F1 cells xenografted C57/BL mouse assessed as reduction of body weight at 30 mg/kg, ip administered 7 days after tumor inoculation qd for 14 days; type: organism-based; parameters: dose 30 mg/kg, route intraperitoneal; conditions: in vivo
[14] = tested on: MDA-MB-435; experiment: cells; conditions: Homo sapiens, MDA-MB-435, 48 h
Description: Cytotoxicity against human MDA-MB-435 cells after 48 hrs by sulforhodamine B assay

[15] = Cytotoxicity against human multidrug-resistant MDA-MB-435/LCCMDR1 cells after 48 hrs by sulforhodamine B assay; type: functional, cell-based; conditions: MDA-MB-435, 48 h

Row | SMILES | IC50 [1] | IC50 [2] | IC50 [3] | IC50 [4] | IC50 [5] | IC50 [6] | IC50 [7] | solubility thermodynamic at 24 h [8] | solubility thermodynamic at 24 h [9] | Activity [10] | Activity [11] | Activity [12] | Activity [13] | IC50 [14] | IC50 [15]
1 | O=C(c1ccc(F)cc1)c1cnc(-c2ccc(Cl)cc2)n1S(=O)(=O)c1ccccc1 | 0.088 µM | 0.107 µM | 0.07 µM | 0.048 µM | 0.054 µM | 0.076 µM | 0.064 µM |  |  |  |  |  |  |  | 
2 | COc1cc(-c2ncc(C(=O)c3ccc(F)cc3)n2S(=O)(=O)c2ccccc2)cc(OC)c1OC | 3.84 µM | > 10 µM | > 10 µM | > 10 µM | > 10 µM | > 10 µM | > 10 µM |  |  |  |  |  |  |  | 
3 | COc1cc(C(=O)c2c[nH]c(-c3ccc(F)cc3)n2)cc(OC)c1OC | 0.205 µM | 0.32 µM | 0.073 µM | 0.098 µM | 0.081 µM | 0.169 µM | 0.132 µM |  |  |  |  |  |  |  | 
4 | COc1cc(C(=O)c2csc(-c3ccc(N(C)C)cc3)n2)cc(OC)c1OC |  |  |  |  |  |  |  | 0.909 µg/mL (≈ 2.28 µM) | 0.833 µg/mL (≈ 2.09 µM) |  |  |  |  |  | 
5 | O=S(=O)(c1ccccc1)n1ccnc1-c1ccccc1 | > 10 µM | > 10 µM | > 10 µM | > 10 µM | > 10 µM | > 10 µM | > 10 µM |  |  |  |  |  |  |  | 
6 | CN(C)/N=N/c1[nH]cnc1C(N)=O [DACARBAZINE] |  |  |  |  |  |  |  |  |  | 51% | Non-toxic |  |  |  | 
7 | Cc1ccc(C(=O)c2cnc(-c3ccccc3)n2S(=O)(=O)c2ccccc2)cc1 | > 10 µM | > 10 µM | > 10 µM | > 10 µM | > 10 µM | > 10 µM | > 10 µM |  |  |  |  |  |  |  | 
8 | O=C(c1cccc(F)c1)c1c[nH]c(-c2ccccc2)n1 | > 10 µM | > 10 µM | > 10 µM | > 10 µM | > 10 µM | > 10 µM | > 10 µM |  |  |  |  |  |  |  | 
9 | COc1cc(C(=O)c2c[nH]c(-c3cc(OC)c(OC)c(OC)c3)n2)cc(OC)c1OC | 4.8 µM | > 10 µM | > 10 µM | > 10 µM | > 10 µM | > 10 µM | > 10 µM |  |  |  |  |  |  |  | 
10 | COc1cc(C(=O)n2ccnc2-c2ccccc2)cc(OC)c1OC | > 10 µM | > 10 µM | > 10 µM | > 10 µM | > 10 µM | > 10 µM | > 10 µM |  |  |  |  |  |  |  | 
11 | O=C(c1cc(O)c(O)c(O)c1)c1c[nH]c(-c2cc(O)c(O)c(O)c2)n1 | > 10 µM | > 10 µM | > 10 µM | > 10 µM | > 10 µM | > 10 µM | > 10 µM |  |  |  |  |  |  |  | 
12 | O=C(c1ccc(F)cc1)c1cnc(-c2ccc(OCc3ccccc3)cc2)n1S(=O)(=O)c1ccccc1 | 0.064 µM | 0.11 µM | 0.048 µM | 0.035 µM | 0.038 µM | 0.075 µM | 0.058 µM |  |  |  |  |  |  |  | 
13 | COc1ccc(C(=O)c2c[nH]c(-c3ccccc3)n2)cc1 | > 10 µM | > 10 µM | > 10 µM | > 10 µM | > 10 µM | > 10 µM | > 10 µM |  |  |  |  |  |  |  | 
14 | O=S(=O)(c1ccccc1)n1ccnc1-c1ccc(OCc2ccccc2)cc1 | > 10 µM | > 10 µM | > 10 µM | > 10 µM | > 10 µM | > 10 µM | > 10 µM |  |  |  |  |  |  |  | 
15 | COc1cc(C(=O)c2cnc(-c3cc(OC)c(OC)c(OC)c3)n2S(=O)(=O)c2ccccc2)cc(OC)c1OC | > 10 µM | > 10 µM | > 10 µM | > 10 µM | > 10 µM | > 10 µM | > 10 µM |  |  |  |  |  |  |  | 
16 | CN(C)c1ccc(-c2ncc(C(=O)c3ccc(F)cc3)n2S(=O)(=O)c2ccccc2)cc1 | 0.055 µM | 0.242 µM | 0.056 µM | 0.056 µM | 0.048 µM | 0.083 µM | 0.074 µM |  |  |  |  |  |  |  | 
17 | COc1ccc(/C=C\c2cc(OC)c(OC)c(OC)c2)cc1O [COMBRETASTATIN A4] |  |  |  |  |  |  |  | 1.04 µg/mL (≈ 3.29 µM) | 2.83 µg/mL (≈ 8.95 µM) |  |  |  |  |  | 
18 | O=[N+]([O-])c1ccc(-c2nccn2S(=O)(=O)c2ccccc2)cc1 | > 10 µM | > 10 µM | > 10 µM | > 10 µM | > 10 µM | > 10 µM | > 10 µM |  |  |  |  |  |  |  | 

Row | SMILES | IC50 [1] | IC50 [2] | IC50 [3] | IC50 [4] | IC50 [5] | IC50 [6] | IC50 [7] | solubility thermodynamic at 24 h [8] | solubility thermodynamic at 24 h [9] | Activity [10] | Activity [11] | Activity [12] | Activity [13] | IC50 [14] | IC50 [15]
19 | COc1cccc(C(=O)c2cnc(-c3ccccc3)n2S(=O)(=O)c2ccccc2)c1 | > 10 µM | > 10 µM | > 10 µM | > 10 µM | > 10 µM | > 10 µM | > 10 µM |  |  |  |  |  |  |  | 
20 | COc1ccc(-c2ncc(C(=O)c3ccc(F)cc3)n2S(=O)(=O)c2ccccc2)cc1OC | 0.96 µM | 2 µM | 1.4 µM | 1.92 µM | 1.44 µM | 10 µM | 3.31 µM |  |  |  |  |  |  |  | 
21 | COc1ccc(C(=O)c2c[nH]c(-c3ccccc3)n2)cc1OC | > 10 µM | > 10 µM | > 10 µM | > 10 µM | > 10 µM | > 10 µM | > 10 µM |  |  |  |  |  |  |  | 
22 | COc1cc(C(=O)c2c[nH]c(-c3ccc(N(C)C)cc3)n2)cc(OC)c1OC | 0.082 µM | 0.361 µM | 0.08 µM | 0.058 µM | 0.067 µM | 0.092 µM | 0.095 µM | 48.9 µg/mL (≈ 128 µM) | 11.3 µg/mL (≈ 29.6 µM) |  |  |  |  |  | 
23 | O=C(c1cccc(F)c1)c1cnc(-c2ccccc2)n1S(=O)(=O)c1ccccc1 | > 10 µM | > 10 µM | > 10 µM | > 10 µM | > 10 µM | > 10 µM | > 10 µM |  |  |  |  |  |  |  | 
24 | Cc1ccc(-c2nc(C(=O)c3ccc(F)cc3)c[nH]2)cc1 | 0.142 µM | 0.222 µM | 0.156 µM | 0.045 µM | 0.054 µM | 0.065 µM | 0.078 µM |  |  |  |  |  |  |  | 
25 | O=C(c1ccc(F)cc1)c1cnc(-c2ccccc2C(F)(F)F)n1S(=O)(=O)c1ccccc1 | > 10 µM | > 10 µM | > 10 µM | > 10 µM | > 10 µM | > 10 µM | > 10 µM |  |  |  |  |  |  |  | 
26 | COc1ccc(C(=O)n2ccnc2-c2ccccc2)cc1 | > 10 µM | > 10 µM | > 10 µM | > 10 µM | > 10 µM | > 10 µM | > 10 µM |  |  |  |  |  |  |  | 
27 | O=C(c1ccc(F)cc1)c1cnc(-c2ccccc2)n1S(=O)(=O)c1ccccc1 | 0.63 µM | 0.946 µM | 0.596 µM | 0.573 µM | 0.575 µM | 2.23 µM | 0.846 µM |  |  |  |  |  |  |  | 
28 | COc1cccc(C(=O)c2c[nH]c(-c3ccccc3)n2)c1 | > 10 µM | > 10 µM | > 10 µM | > 10 µM | > 10 µM | > 10 µM | > 10 µM |  |  |  |  |  |  |  | 
29 | Cc1ccc(C(=O)c2c[nH]c(-c3ccccc3)n2)cc1 | > 10 µM | > 10 µM | > 10 µM | > 10 µM | > 10 µM | > 10 µM | > 10 µM |  |  |  |  |  |  |  | 
30 | O=C(c1ccc(F)cc1)c1c[nH]c(-c2ccc(OCc3ccccc3)cc2)n1 | 0.093 µM | 0.117 µM | 0.09 µM | 0.044 µM | 0.043 µM | 0.079 µM | 0.06 µM |  |  |  |  |  |  |  | 
31 | CC(=O)O[C@H]1C(=O)[C@@]2(C)[C@H]([C@H](OC(=O)c3ccccc3)[C@]3(O)C[C@H](OC(=O)[C@H](O)[C@@H](NC(=O)c4ccccc4)c4ccccc4)C(C)=C1C3(C)C)[C@]1(OC(C)=O)CO[C@@H]1C[C@@H]2O [PACLITAXEL] |  |  |  |  |  |  |  | 0.137 µg/mL (≈ 0.16 µM) | 0.021 µg/mL (≈ 0.0246 µM) |  |  |  |  |  | 
32 | COc1ccc(-c2nc(C(=O)c3ccc(F)cc3)c[nH]2)cc1 |  |  |  |  |  |  |  |  |  |  |  | Non-toxic | Non-toxic | 0.03 µM | 
33 | O=C(c1cc(O)c(O)c(O)c1)c1c[nH]c(-c2ccc(Cl)cc2)n1 | 3.9 µM | 1.81 µM | 2.1 µM | 10 µM | > 10 µM | 10 µM | 10 µM |  |  |  |  |  |  |  | 
34 | O=C(c1cc(O)c(O)c(O)c1)c1c[nH]c(-c2ccc(O)c(O)c2)n1 | > 10 µM | > 10 µM | > 10 µM | > 10 µM | > 10 µM | > 10 µM | > 10 µM |  |  |  |  |  |  |  | 
35 | COc1ccc(-c2ncc(C(=O)c3ccc(F)cc3)n2S(=O)(=O)c2ccccc2)cc1 | 0.036 µM | 0.071 µM | 0.043 µM | 0.031 µM | 0.032 µM | 0.033 µM | 0.052 µM |  |  |  |  |  |  | 0.03 µM | 0.038 µM
36 | COc1cc(-c2nc(C(=O)c3ccc(F)cc3)c[nH]2)cc(OC)c1OC | > 10 µM | > 10 µM | > 10 µM | > 10 µM | > 10 µM | > 10 µM | > 10 µM |  |  |  |  |  |  |  | 
